Results from patent publication US8168667B2 (Galapagos NV, priority 2006, dated 2012).
Like-named read-outs stand apart in the source and are kept apart here.

Tests used:
[1] = target: T1, human androgen receptor (hAR) (Homo sapiens, UniProt P10275); assay: Functional response test: hAR transactivation (luciferase reporter) in HALP2 cells; type: cell-based
T1 sequence (P10275 1-920): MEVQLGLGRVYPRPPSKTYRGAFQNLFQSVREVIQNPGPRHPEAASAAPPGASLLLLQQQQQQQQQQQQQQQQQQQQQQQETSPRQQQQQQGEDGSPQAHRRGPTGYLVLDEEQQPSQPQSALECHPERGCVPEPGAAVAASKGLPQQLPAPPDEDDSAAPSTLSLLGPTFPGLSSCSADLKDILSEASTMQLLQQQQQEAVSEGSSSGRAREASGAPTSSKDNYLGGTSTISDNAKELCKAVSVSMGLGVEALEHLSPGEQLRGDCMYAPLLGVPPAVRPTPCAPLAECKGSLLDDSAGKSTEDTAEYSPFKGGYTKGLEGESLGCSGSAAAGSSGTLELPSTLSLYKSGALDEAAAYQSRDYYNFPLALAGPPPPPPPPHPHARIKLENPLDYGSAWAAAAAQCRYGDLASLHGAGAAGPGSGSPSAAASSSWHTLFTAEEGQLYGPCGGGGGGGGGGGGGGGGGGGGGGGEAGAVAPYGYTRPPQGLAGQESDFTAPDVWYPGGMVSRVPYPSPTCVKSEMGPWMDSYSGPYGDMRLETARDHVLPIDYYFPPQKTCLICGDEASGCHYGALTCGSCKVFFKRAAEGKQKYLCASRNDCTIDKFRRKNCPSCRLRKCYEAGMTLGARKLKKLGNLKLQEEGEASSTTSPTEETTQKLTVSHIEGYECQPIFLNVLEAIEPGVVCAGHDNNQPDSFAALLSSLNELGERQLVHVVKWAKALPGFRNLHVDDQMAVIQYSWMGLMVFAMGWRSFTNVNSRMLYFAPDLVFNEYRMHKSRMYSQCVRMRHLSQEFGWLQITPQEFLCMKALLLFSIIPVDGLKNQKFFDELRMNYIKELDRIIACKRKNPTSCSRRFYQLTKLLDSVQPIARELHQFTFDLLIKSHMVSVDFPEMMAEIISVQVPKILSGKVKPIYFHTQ
How it was run: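 HALP2 cells are HeLa cells stably transfected with CMV-driven hAR and a probasin ARE-luciferase reporter. They were seeded 24 h ahead, then exposed to compounds for 20 hours at 37° C in phenol red-free DMEM with 5% desteroided serum. Luciferase luminescence was measured after lysis; for antagonist mode, compounds were tested against increasing DHT concentrations.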

[2] = test system: castrated immature young rats; assay: Adapted model of Hershberger's test (levator ani and ventral prostate weight); type: in vivo, Sprague Dawley rats; conditions: Rattus norvegicus, po, 96 h
Method: The selective modulating activity of the androgen receptor was tested in a model of castrated immature young rats. This model, which is widely recognised for evaluating the anabolic effects of androgen compounds on the muscles and on the genitalia, has been described by Hershberger et al. 1953 Proc. Soc. Expt. Biol. Med. 83:175.
The method is based on the measurement of the well-known effects of androgens on the growth of the muscles and the accessory male sex organs in animals, and also in men. The consequences of castration appear in the form of a rapid involution and atrophy of the prostate and the seminal vesicles and of the anus-lifting muscle (levator ani). This effect may be completely compensated by an exogeneous administration of androgen, in particular of testosterone. The model is thus used to determine the capacity of the tested molecules to maintain the weight of the accessory sex and muscle organs in immature castrated rats, and therefore their androgenic efficacy.
Immature young Sprague Dawley rats (4 to 5 weeks old) weighing approximately 140-160 g (Charles River, Les Oncins, FRANCE) were distributed randomly in various groups and were kept in an environment at 22±2° C. with an alternating day/night cycle of 12 hours and ad libitum access to food and drink.
On day 0, that is, seven days before commencement of the first treatment, the rats were weighed individually then anaesthetised with an intraperitoneal dose of Ketamine/xylazine (85/15 mg/kg, approximately 2 ml/kg). Each animal was then placed on a sterile field and the abdomen and the scrotum were disinfected with Betadine and 70% alcohol. In the case of the orchidectomised control animals (ORX), the testicles were removed via an incision in the middle of the scrotum. A sterile suture was then made to ligature the supra-testicular portion of the tissue prior to surgical section of each testicle. The groups of animals to be treated by the tested compounds were operated on in an identical manner. In the case of the intact control animals (SHAM), the testicles were similarly extracted and reintroduced delicately to their original location. The site of surgical intervention was then sutured using sterile suture thread, and the site was disinfected again by application of Betadine. Each animal was then kept under a sterile pad until it awoke, before being returned to its cage. The animals were kept in an environment at 22±2° C. with an alternating day/night cycle of 12 hours and ad libitum access to food and drink. The animals were treated with the molecules to be tested from post-surgery day 7 and until day 10 preceding sacrifice (day 11).
The rats were split into groups and treated daily from day 7 to day 10 under the conditions defined below: • 1. SHAM control group: Vehicle (0.5% aqueous methyl cellulose) administered per os. • 2. ORX control group: Vehicle (0.5% aqueous methyl cellulose) administered per os. • 3. Treated ORX group: The tested compounds were administered individually per os in suspension in the vehicle described above, in a dose of 30 mg/kg.
After treatment for 4 successive days, the animals were decapitated using a guillotine. The levator ani and the ventral prostate were removed and weighed individually. For comparing inter-experimental data, the weight of each organ was standardised and expressed in milligrammes per 100 g of the weight of the animal (W). For each organ, the average of the standardised weights of the ORX control group was fixed by definition at 0% and the average of the standardised weights of the SHAM control group was fixed by definition at 100%. The efficacy of each product was expressed as a percentage and calculated using the following formula: (Wtreated−WORX)/(WSHAM−WORX)×100 A subsequent ANOVA test was used for statistical analysis to identify the differences between groups.

[3] = read-out: anabolic protection efficacy with regard to levator ani
[4] = read-out: androgenic efficacy with regard to the prostate
[5] = antagonism, concentration which increases the EC50 of the DHT by a factor of 2, Schild regression, HALP2 cells

## CN1C(=O)N(c2ccc(C#N)c(C(F)(F)F)c2)C(=O)C1c1ccc(O)cc1 (stereo not shown) [Example 2, 4-[2,5-dioxo-4-(4-hydroxyphenyl)-3-methyl-imidazolidin-1-yl]-2-trifluoromethylbenzonitrile]
[1]
  KSchild (nM) potency: 9.65 nM
other
  melting point: 157.4 °C

## COc1cc(N2C(=O)N(C)C(C)(c3ccc(O)cc3)C2=O)ccc1C#N (stereo not shown) [Example 9, 4-[3,4-dimethyl-2,5-dioxo-4-(4-hydroxyphenyl)imidazolidin-1-yl]-2-methoxybenzonitrile]
[1]
  KSchild (nM) potency: 2.1 nM
[2]; [3]
  inhibition in vivo at 30 mg/kg: 50 to 140%
[2]; [4]
  inhibition in vivo at 30 mg/kg: 5 to 70%

## CN1C(=O)N(c2ccc(Cl)c(Cl)c2)C(=O)C1(C)c1ccc(O)cc1 (stereo not shown) [Example 25, 1-(3,4-dichlorophenyl)-3,4-dimethyl-4-(4-hydroxyphenyl)imidazolidine-2,5-dione]
[1]
  KSchild (nM) potency: 10.9 nM
other
  melting point: 184 °C

## C#CCN1C(=S)N(c2ccc(C#N)c(C(F)(F)F)c2)C(=O)C1(C)c1ccc(O)cc1 (stereo not shown) [Example 43, 4-[4-(4-hydroxyphenyl)-4-methyl-5-oxo-3-(2-propynyl)-2-thioxoimidazolidin-1-yl]-2-trifluoromethylbenzonitrile]
[1]
  KSchild (nM) potency: 0.49 nM
other
  melting point: 169 °C

## CN1C(=O)N(c2ccc(C#N)c(C(F)(F)F)c2)C(=O)C1(C)c1ccc(O)c(Cl)c1 (stereo not shown) [Example 173, 4-[4-(3-chloro-4-hydroxyphenyl)-3,4-dimethyl-2,5-dioxoimidazolidin-1-yl]-2-trifluoromethylbenzonitrile]
[1]
  KSchild (nM) potency: 3 nM
other
  melting point: 161.1 °C

## CN1C(=O)N(c2ccc(C#N)c(C(F)(F)F)c2)C(=O)C1(CO)c1ccc(O)cc1 (stereo not shown) [Example 176, 4-[2,5-dioxo-4-hydroxymethyl-4-(4-hydroxyphenyl)-3-methyl-imidazolidin-1-yl]-2-trifluoromethylbenzonitrile]
[1]
  KSchild (nM) potency: 1.34 nM
[2]; [3]
  inhibition in vivo at 30 mg/kg: 50 to 140%
[2]; [4]
  inhibition in vivo at 30 mg/kg: 5 to 70%

## CN1C(=O)N(c2ccc(C#N)c(C(F)(F)F)c2)C(=O)C1(CF)c1ccc(O)cc1 (stereo not shown) [Example 177, 4-[2,5-dioxo-4-fluoromethyl-4-(4-hydroxyphenyl)-3-methylimidazolidin-1-yl]-2-trifluoromethylbenzonitrile]
[1]
  KSchild (nM) potency: 0.72 nM
[2]; [3]
  inhibition in vivo at 30 mg/kg: 50 to 140%
[2]; [4]
  inhibition in vivo at 30 mg/kg: 5 to 70%

## C#CCC1(c2ccc(O)cc2)C(=O)N(c2ccc(C#N)c(C(F)(F)F)c2)C(=O)N1C (stereo not shown) [Example 177.3, 4-[2,5-dioxo-4-(4-hydroxyphenyl)-3-methyl-4-(2-propynyl)imidazolidin-1-yl]-2-trifluoromethylbenzonitrile]
[1]
  KSchild (nM) potency: 15 nM
other
  melting point: 122 °C

## CN1C(=O)N(c2ccc(Cl)c(Cl)c2)C(=O)C1(CF)c1ccc(O)cc1 (stereo not shown) [Example 184, 1-(3,4-dichlorophenyl)-4-fluoromethyl-4-(4-hydroxyphenyl)-3-methylimidazolidine-2,5-dione]
[1]; agonism, HALP2 cells (HeLa, hAR + ARE-luciferase), 20 hours at 37° C.
  EC50: 4.9 nM
[1]; [5]
  KSchild (nM) potency: 2.8 nM
other
  melting point: 167.2 °C

## CCOCN1C(=O)N(c2ccc(C#N)c(C(F)(F)F)c2)C(=O)C1(C)c1ccc(O)cc1 (stereo not shown) [Example 221, 4-[3-(ethoxymethyl)-4-(4-hydroxyphenyl)-4-methyl-2,5-dioxoimidazolidin-1-yl]-2-trifluoromethylbenzonitrile]
[1]
  KSchild (nM) potency: 5.66 nM
other
  melting point: 143 °C

## COCN1C(=O)N(c2ccc(C#N)c(C(F)(F)F)c2)C(=O)C1(C)c1ccc(O)cc1 (stereo not shown) [Example 222, 4-[4-(4-hydroxyphenyl)-3-methoxymethyl-4-methyl-2,5-dioxoimidazolidin-1-yl]-2-trifluoromethylbenzonitrile]
[2]; [3]
  inhibition in vivo at 30 mg/kg: 50 to 140%
[2]; [4]
  inhibition in vivo at 30 mg/kg: 5 to 70%

## COCN1C(=O)N(c2ccc(C#N)c(OC)c2)C(=O)C1(C)c1ccc(O)cc1 (stereo not shown) [Example 223.1, 4-[4-(4-hydroxyphenyl)-3-methoxymethyl-4-methyl-2,5-dioxoimidazolidin-1-yl]-2-methoxybenzonitrile]
[1]
  KSchild (nM) potency: 4 nM
other
  melting point: 141 °C

## CCN1C(=O)N(c2ccc(C#N)c(C(F)(F)F)c2)C(=O)C1(C)c1ccc(O)cc1 (stereo not shown) [Example 224, 4-[2,5-dioxo-3-ethyl-4-(4-hydroxyphenyl)-4-methylimidazolidin-1-yl]-2-trifluoromethylbenzonitrile]
[1]; [5]
  KSchild (nM) potency: 2 nM
other
  melting point: 165 °C

## CCCN1C(=O)N(c2ccc(C#N)c(C(F)(F)F)c2)C(=O)C1(C)c1ccc(O)cc1 (stereo not shown) [Example 225, 4-[2,5-dioxo-4-(4-hydroxyphenyl)-4-methyl-3-propylimidazolidin-1-yl]-2-trifluoromethylbenzonitrile]
[1]
  KSchild (nM) potency: 2.83 nM
other
  melting point: 125 °C

## CC1(c2ccc(O)cc2)C(=O)N(c2ccc(C#N)c(C(F)(F)F)c2)C(=O)N1CCF (stereo not shown) [Example 226, 4-[2,5-dioxo-3-(2-fluoroethyl)-4-(4-hydroxyphenyl)-4-methylimidazolidin-1-yl]-2-trifluoromethylbenzonitrile]
[1]
  KSchild (nM) potency: 2.45 nM
other
  melting point: 157 °C

## CC1(c2ccc(O)cc2)C(=O)N(c2ccc(C#N)c(C(F)(F)F)c2)C(=O)N1S(C)(=O)=O (stereo not shown) [Example 243.1, 4-[2,5-dioxo-4-(4-hydroxyphenyl)-4-methyl-3-(methylsulphonyl)imidazolidin-1-yl]-2-trifluoromethylbenzonitrile]
[1]
  KSchild (nM) potency: 80 nM

## Cc1ccc(S(=O)(=O)N2C(=O)N(c3ccc(C#N)c(C(F)(F)F)c3)C(=O)C2(C)c2ccc(O)cc2)cc1 (stereo not shown) [Example 243.2, 4-[2,5-dioxo-4-(4-hydroxyphenyl)-4-methyl-3-[(4-methylphenyl)sulphonyl]imidazolidin-1-yl]-2-trifluoromethylbenzonitrile]
[1]
  KSchild (nM) potency: 150 nM

## CN1C(=O)N(c2ccc(C#N)c(C(F)(F)F)c2)C(=O)C1(C)c1ccc(OCCO)cc1 (stereo not shown) [Example 343]
[1]
  KSchild (nM) potency: 60 nM
